This note sets out measurements from paper PMC8150775, “Repositioning Azelnidipine as a Dual Inhibitor Targeting CD47/SIRPα and TIGIT/PVR Pathways for Cancer Immuno-Therapy” (Biomolecules, 2021).

The subject of assay [1] is PVR. Briefly: Flow cytometry of PVR expression on CT26 cells in vitro. Type of assay: cell-based, mouse. The settings on record: 20 μM, 24 h. How it is done: (§1) Cells in good growth condition were harvested and used to detect the expression of CD47 and PVR. Antibodies anti-human CD47 APC, anti-human PVR PE, anti-mouse-CD47 APC, anti-mouse-PVR APC, and matched isotype controls were purchased from eBioscience, San Diego, CA, USA. The effects of azelnidipine on the expression of CD47 and PVR was determined by incubating CT26 cells with 20 μM of azelnidipine for 24 h, or directly analyzing the tumor cells from tumor tissues of CT26-bearing mice treated with or without azelnidipine.
(§2) Figure S3. The effects of Azelnidipine on the expression of CD47 and PVR on CT26 tumor cells. (A and B) CT26 cells were incubated with 20 μM Azelnidipine or vehicle control for 24h, and analyzed the expression of CD47 (A) and PVR (B). The gray shaded histogram represents the isotype, the red line represents the cells treated with vehicle control, and the blue line represents the cells treated with Azelnidipine. (C and D) Tumor cells (CD45-) derived from the tumor tissues of CT26 tumor-bearing mice treated with normal saline (NS) or 5 mg/kg Azelnidipine for twelve days, were analyzed for the expression of CD47 (C) and PVR (D). n.s. means not […]
(§3) (1 picture or pasted object on this page, not shown here)
On the technique in general: A flow cytometer gives signals particle by particle.

In assay [2] the test system is PVR. The experiment in a line: Flow cytometry of PVR expression on tumor cells from CT26-bearing mice. The format is in vivo, mouse. To be noted: 5 mg/kg for twelve days, CD45- tumor cells. How it is done: as §1, §2, §3
The next assay addresses T1, TIGIT/PVR interaction (Homo sapiens, UniProt P15151).
T1 construct: purchased ACRO Biosystem CD5-H82F6; host or cells: CHOK1-TIGIT cells (lenti-viral transfection)
T1 sequence (P15151 21-343 limits assumed): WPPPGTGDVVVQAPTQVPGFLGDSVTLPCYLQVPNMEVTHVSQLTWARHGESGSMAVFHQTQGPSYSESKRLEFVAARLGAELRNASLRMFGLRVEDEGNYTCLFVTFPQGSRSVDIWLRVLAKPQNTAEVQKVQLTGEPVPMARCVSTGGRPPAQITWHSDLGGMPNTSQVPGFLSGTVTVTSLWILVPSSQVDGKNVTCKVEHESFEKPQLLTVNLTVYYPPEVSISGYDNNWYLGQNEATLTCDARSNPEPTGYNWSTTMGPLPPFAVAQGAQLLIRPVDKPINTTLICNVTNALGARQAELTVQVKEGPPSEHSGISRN
Briefly: Blocking assay by flow cytometry, preliminary screening at a single concentration, TIGIT/PVR. Type of assay: binding. To be noted: preliminary test, single concentration of 100 μM. How it is done: The abilities of small molecule inhibitors (SMIs) (purchased from TargetMol, Shanghai, China) to block the binding of SIRPα protein to CHOK1-CD47 cells or PVR protein to CHOK1-TIGIT cells were determined by flow cytometry, as previously reported. The SMIs at indicated concentrations were incubated with Fc-tagged SIRPα or PVR protein for 30 min at 4°C, followed by incubating with the indicated cells for another 30 min. Human SIRPα protein (SIA-H5251, ACRO Biosystem, Beijing, China), mouse SIRPα protein (SIA-M5258, ACRO Biosystem, Beijing, China), human PVR protein (CD5-H82F6, ACRO Biosystem, Beijing, China), and mouse PVR protein (50259-M03H, Sino Biological, Beijing, China) were used. PE-conjugated anti-human IgG antibody was used to detect the Fc protein bind to cells. Cells incubated with the Fc proteins and anti-human IgG antibody without the SMIs serve as the positive control. The mean fluorescent intensity (MFI) of each sample was detected and recorded by a flow cytometry. The blocking efficacy of the SMIs was calculated as the equation: (MFI of the positive control-MFI of the SMI)/MFI of the positive control × 100%.
The small molecule inhibitor could not only bind to the target; most importantly, it should interfere with the receptor–ligand interactions. Subsequently, the candidate inhibitors were screened by the blocking assays with the established CD47 and TIGIT over-expressing cell lines. The test was initialed with a preliminary screening of the candidates with a single concentration (Figure 2D). Generally, the SMI blocking efficacy to the CD47/SIRPα interaction was much higher than that of the TIGIT/PVR. […] Therefore, the SMI-F11 and SMI-F17 may exert dual blocking effects in the CD47/SIRPα and TIGIT/PVR pathways. Blocking assays with a concentration gradient of the SMI were further performed to validate the preliminary screening. […] The similar blocking assays with the mouse CD47 and TIGIT over-expressing cells were also performed. […] Considering that most pairs of the immune checkpoints interact with the corresponding ligand in parallel forms, the blocking assays with the PD-1/PD-L1 interaction system was also conducted to test the specificity.

With `CC1=C(C(=O)OC(C)C)C(c2cccc([N+](=O)[O-])c2)C(C(=O)OC2CN(C(c3ccccc3)c3ccccc3)C2)=C(N)N1` (stereo not drawn) [Azelnidipine], the “expression of PVR on CT26 cells” value in the assay with PVR [1] is listed as “slightly inhibit”. In addition, the “expression of PVR on CT26 tumor cells derived from tumor tissues” value in the assay with PVR [2] was “could inhibit the expression of PVR”. Moreover, the “activity in interfering with the TIGIT/PVR interaction” value at TIGIT/PVR interaction is “better activities”.
